# According to patent US9862679B2, “Potent and selective inhibitors of monoamine transporters; method of making; and use thereof” (priority 2013, dated 2018):
# Where two headings read alike, the source gives them in different places.
# Legend:
# [1] = target: norepinephrine transporter (NET) (Rattus norvegicus, UniProt Q63380); conditions: rat brain membranes; for Ki: read-out: Ki (nM) ± S.E.M. NET
# Description: Binding affinities of all compounds were evaluated at the DAT, SERT, and NET in rat brain membranes using previously described methods:
# Norepinephrine Transporter Binding Assay. Brains from male Sprague-Dawley rats weighing 200-225 g (Taconic Labs, Germantown, N.Y.) were removed, frontal cortex dissected and rapidly frozen. Membranes were prepared by homogenizing tissues in 20 volumes (w/v) of 50 mM Tris containing 120 mM NaCl and 5 mM KCl, (pH 7.4 at 25° C.), using a Brinkman Polytron and centrifuged at 50,000×g for 10 min at 4° C. The resulting pellet was resuspended in buffer, recentrifuged and resuspended in buffer to a concentration of 80 mg/mL. Ligand binding experiments were conducted in assay tubes containing 0.5 mL buffer for 60 min at 0-4° C. […] Nonspecific binding was determined using 1 mM desipramine. Incubations were terminated by rapid filtration through Whatman GF/B filters, presoaked in 0.05% polyethylenimine, using a Brandel R48 filtering manifold (Brandel Instruments Gaithersburg, Md.). The filters were washed twice with 3 mL cold buffer and transferred to scintillation vials. Beckman Ready Value (3.0 mL) was added and the vials were counted using a Beckman 6000 liquid scintillation counter (Beckman Coulter Instruments, Fullerton, Calif.). […] All compounds were tested as racemic mixtures.
# [2] = target: serotonin transporter (SERT) (Rattus norvegicus (Rat), UniProt P31652); conditions: for Ki: read-out: Ki (nM) ± S.E.M. SERT, rat brain membranes
# Chain of serotonin transporter (SERT) (P31652 whole entry): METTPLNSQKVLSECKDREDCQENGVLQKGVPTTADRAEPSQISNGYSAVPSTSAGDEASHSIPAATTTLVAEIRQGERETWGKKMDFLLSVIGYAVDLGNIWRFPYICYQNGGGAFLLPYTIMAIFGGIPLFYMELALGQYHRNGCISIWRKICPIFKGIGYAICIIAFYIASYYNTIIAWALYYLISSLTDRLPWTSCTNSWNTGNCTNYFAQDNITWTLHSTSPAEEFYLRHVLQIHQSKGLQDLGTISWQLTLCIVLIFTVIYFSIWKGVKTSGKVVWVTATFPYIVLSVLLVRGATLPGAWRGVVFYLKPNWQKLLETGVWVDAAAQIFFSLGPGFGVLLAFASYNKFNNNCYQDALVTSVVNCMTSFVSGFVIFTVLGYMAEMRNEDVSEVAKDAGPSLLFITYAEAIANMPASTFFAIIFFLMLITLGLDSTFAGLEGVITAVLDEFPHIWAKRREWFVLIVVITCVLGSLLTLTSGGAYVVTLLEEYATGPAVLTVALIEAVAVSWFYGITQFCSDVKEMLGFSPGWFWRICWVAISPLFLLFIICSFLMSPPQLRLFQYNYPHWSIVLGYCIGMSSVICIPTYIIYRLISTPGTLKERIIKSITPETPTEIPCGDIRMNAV
# Description: Brains from male Sprague-Dawley rats weighing 200-225 g (Taconic Labs, Germantown, N.Y.) were removed, midbrain dissected and rapidly frozen. […] Nonspecific binding was determined using 10 mM fluoxetine. […] The filters were washed twice with 3 mL cold buffer and transferred to scintillation vials. Beckman Ready Value (3.0 mL) was added and the vials were counted the next day using a Beckman 6000 liquid scintillation counter (Beckman Coulter Instruments, Fullerton, Calif.). […] Data were analyzed with GraphPad Prism software (San Diego, Calif.).
# [3] = target: dopamine transporter (DAT) (Rattus norvegicus (Rat), UniProt P23977); test: Dopamine Transporter Binding Assay ([3H]WIN 35428, rat striatal membranes); conditions: for Ki: read-out: Ki (nM) ± S.E.M. DAT
# Chain of dopamine transporter (DAT) (P23977 whole entry): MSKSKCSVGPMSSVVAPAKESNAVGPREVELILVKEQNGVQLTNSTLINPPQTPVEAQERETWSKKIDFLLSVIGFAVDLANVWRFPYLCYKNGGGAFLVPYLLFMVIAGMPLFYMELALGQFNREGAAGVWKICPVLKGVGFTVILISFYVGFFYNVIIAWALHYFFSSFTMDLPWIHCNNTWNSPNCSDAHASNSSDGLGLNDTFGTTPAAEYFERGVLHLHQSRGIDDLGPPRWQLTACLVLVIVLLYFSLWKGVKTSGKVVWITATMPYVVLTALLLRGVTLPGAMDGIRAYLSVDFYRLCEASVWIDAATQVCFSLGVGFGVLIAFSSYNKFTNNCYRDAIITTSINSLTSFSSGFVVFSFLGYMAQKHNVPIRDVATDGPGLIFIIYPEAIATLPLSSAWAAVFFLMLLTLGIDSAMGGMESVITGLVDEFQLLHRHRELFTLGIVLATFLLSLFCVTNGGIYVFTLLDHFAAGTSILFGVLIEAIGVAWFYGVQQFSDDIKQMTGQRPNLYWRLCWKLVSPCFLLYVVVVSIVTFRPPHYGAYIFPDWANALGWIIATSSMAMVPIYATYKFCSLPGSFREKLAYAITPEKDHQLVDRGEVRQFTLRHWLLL
# [4] = Table 1 thioacetamides and sulfinylacetamides
# [5] = Table 2 thioethanamines and sulfinylethanamines
# [6] = rat brain membranes, Table 2 thioethanamines and sulfinylethanamines
# [7] = rat brain membranes, Table 1 thioacetamides and sulfinylacetamides
# Chain of norepinephrine transporter (NET) (Q63380 1-617): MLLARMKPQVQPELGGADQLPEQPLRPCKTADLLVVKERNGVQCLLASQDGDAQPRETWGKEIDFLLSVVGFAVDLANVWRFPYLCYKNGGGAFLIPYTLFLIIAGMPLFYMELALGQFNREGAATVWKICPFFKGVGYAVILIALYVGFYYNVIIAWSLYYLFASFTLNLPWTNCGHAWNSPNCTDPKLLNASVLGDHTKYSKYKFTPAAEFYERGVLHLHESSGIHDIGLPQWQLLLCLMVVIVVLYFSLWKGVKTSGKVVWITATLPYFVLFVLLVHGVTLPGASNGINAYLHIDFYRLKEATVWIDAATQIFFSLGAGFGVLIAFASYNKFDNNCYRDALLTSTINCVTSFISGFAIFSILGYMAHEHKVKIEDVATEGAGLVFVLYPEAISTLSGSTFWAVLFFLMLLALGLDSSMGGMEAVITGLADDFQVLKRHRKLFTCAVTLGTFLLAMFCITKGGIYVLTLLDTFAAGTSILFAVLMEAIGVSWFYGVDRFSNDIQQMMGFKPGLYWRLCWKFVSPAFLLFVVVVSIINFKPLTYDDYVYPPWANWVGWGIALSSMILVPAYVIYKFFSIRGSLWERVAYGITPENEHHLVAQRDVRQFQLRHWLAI
Compound,"Ki [1, 4] [nM]","Ki [2, 5] [nM]","Ki [2, 4] [nM]","Ki [3, 7] [nM]",further results
"NC(=O)CSC(c1ccccc1)c1ccccc1 [Compound 2a, 2-(Benzhydrylthio)acetamide]",> 100000,,,,
"CCCCNCC[S+]([O-])C(c1ccccc1)c1ccccc1 (stereo not drawn) [Compound 5b, N-(2-(benzhydrylsulfinyl)ethyl)butan-1-amine]",,64600,,,"Ki [3, 6]: 1580 nM; Ki [1, 5]: > 140000 nM"
"NCC[S+]([O-])C(c1ccccc1)c1ccccc1 (stereo not drawn) [Compound 5a, 2-(Benzhydrylsulfinyl)ethan-1-amine]",,3420,,,
"O=C(CSC(c1ccc(Br)cc1)c1ccc(Br)cc1)NCCCc1ccccc1 [Compound 2x, 2-((Bis(4-bromophenyl)methyl)thio)-N-(3-phenylpropyl)acetamide]",36300,,60800,244 ± 36.4,
"CNC(=O)CSC(c1ccccc1)c1ccccc1 [Compound 2g, 2-(Benzhydrylthio)-N-methylacetamide]",27300,,> 300000,19400,
"CCCNC(=O)CSC(c1ccc(F)cc1)c1ccc(F)cc1 [Compound 2l, 2-((Bis(4-fluorophenyl)methyl)thio)-N-propylacetamide]",61700,,45100,12000,
"NC(=O)CSC(c1ccc(Cl)cc1)c1ccc(Cl)cc1 [Compound 100, reference compound]",,,12700,,Ki [3]: 2230 nM
"O=C(C[S+]([O-])C(c1ccc(Br)cc1)c1ccc(Br)cc1)NCCCc1ccccc1 (stereo not drawn) [Compound 3g, 2-(Bis(4-bromophenyl)methylsulfinyl)-N-(3-phenylpropyl)acetamide]",> 100000,,906 ± 113,1290,
"CCCCNCCSC(c1ccccc1)c1ccccc1 [Compound 4e, N-(2-(benzhydrylthio)ethyl)butan-1-amine]",,5820,,,"Ki [3, 6]: 315 ± 39.9 nM; Ki [1, 5]: 11500 nM"
"NCCSC(c1ccccc1)c1ccccc1 [Compound 4a, 2-(benzhydrylthio)ethan-1-amine]",,226 ± 30.6,,,"improved affinity at the DAT compared to (±)-modafinil [3]: about 20 fold; Ki [3]: 143 nM; Ki [1, 5]: 982 ± 43.3 nM"
"[O-][S+](CCNCCCc1ccccc1)C(c1ccc(F)cc1)c1ccc(F)cc1 (stereo not drawn) [Compound 5c, N-(2-((bis(4-fluorophenyl)methyl)sulfinyl)ethyl)-3-phenylpropan-1-amine]",,1310,,,"Ki [3, 6]: 200 ± 38.7 nM; Ki [1, 5]: 3280 nM"
"NC(=O)CSC(c1cccc(Cl)c1)c1cccc(Cl)c1 [Compound 2e, 2-((Bis(3-chlorophenyl)methyl)thio)acetamide]",34000,,739000,277 ± 18.3,
"O=C(CSC(c1ccc(Br)cc1)c1ccc(Br)cc1)NCCCCc1ccccc1 [Compound 2z, 2-((Bis(4-bromophenyl)methyl)thio)-N-(4-phenylbutyl)acetamide]",> 100000,,> 100000,,"Ki (nM) ± S.E.M. NET [1, 4]: no displacement"
"CNC(=O)CSC(c1ccc(Cl)cc1)c1ccc(Cl)cc1 [Compound 2h, 2-((Bis(4-chlorophenyl)methyl)thio)-N-methylacetamide]",,,> 30000,,
"NC(=O)C[S+]([O-])C(c1ccc(C(F)(F)F)cc1)c1ccc(C(F)(F)F)cc1 (stereo not drawn) [Compound 3b, 2-((Bis(4-(trifluoromethyl)phenyl)methyl)sulfinyl)acetamide]",,,,35400,
"CCCNC(=O)CSC(c1ccccc1)c1ccccc1 [Compound 2k, 2-(Benzhydrylthio)-N-propylacetamide]",55900,,> 550000,20700,
"CCCCNC(=O)CSC(c1ccc(Br)cc1)c1ccc(Br)cc1 [Compound 2t, 2-((Bis(4-bromophenyl)methyl)thio)-N-butylacetamide]",,,7090,729 ± 69.3,

Compound,"Ki [1, 4] [nM]","Ki [2, 5] [nM]","Ki [2, 4] [nM]","Ki [3, 7] [nM]",further results
"[O-][S+](CCNCCCc1ccccc1)C(c1ccccc1)c1ccccc1 (stereo not drawn) [Compound 200, reference compound]",,1000,,,Ki [3]: 194 ± 16.8 nM
"Brc1ccc(C(SCCNCCCc2ccccc2)c2ccc(Br)cc2)cc1 [Compound 4i, N-(2-((bis(4-bromophenyl)methyl)thio)ethyl)-3-phenylpropan-1-amine]",,163 ± 7.49,,,Ki [3]: 618 ± 53 nM
"CCCCNC(=O)CSC(c1ccccc1)c1ccccc1 [Compound 2r, 2-(Benzhydrylthio)-N-butylacetamide]",> 100000,,> 100000,24000,
"C=CCNC(=O)CSC(c1ccccc1)c1ccccc1 [Compound 2j, N-Allyl-2-(benzhydrylthio)acetamide]",> 230000,,> 300000,9190,
"CNC(=O)CSC(c1ccc(Br)cc1)c1ccc(Br)cc1 [Compound 2i, 2-((Bis(4-bromophenyl)methyl)thio)-N-methylacetamide]",11200,,5750,3030,"increase in SERT affinity, halogen-substituted v. unsubstituted analogue ([2]; 2i v. 2g (Table 1), 4c v. 4a (Table 2)): > 50 fold; improvement in DAT affinity, halogen-substituted v. unsubstituted analogue [3]: 6 fold"
"O=C(CSC(c1ccccc1)c1ccccc1)NCCCCc1ccccc1 [Compound 2y, 2-(Benzhydrylthio)-N-(4-phenylbutyl)acetamide]",,,,,Ki [3]: 1160 nM
"CCCNC(=O)CSC(c1ccc(Br)cc1)c1ccc(Br)cc1 [Compound 2n, 2-((Bis(4-bromophenyl)methyl)thio)-N-propylacetamide]",10600,,,,
"[O-][S+](CCNCCCc1ccccc1)C(c1ccc(Cl)cc1)c1ccc(Cl)cc1 (stereo not drawn) [Compound 5d, N-(2-((bis(4-chlorophenyl)methyl)sulfinyl)ethyl)-3-phenylpropan-1-amine]",,542 ± 42.6,,,"Ki [3, 6]: 660 ± 76.9 nM; Ki [1, 5]: 5800 nM"
"[O-][S+](CCNCCCc1ccccc1)C(c1ccc(Br)cc1)c1ccc(Br)cc1 (stereo not drawn) [Compound 5e, N-(2-((bis(4-bromophenyl)methyl)sulfinyl)ethyl)-3-phenylpropan-1-amine]",,564 ± 65.3,,,"Ki [3, 6]: 1290 nM; Ki [1, 5]: 7580 nM"
"CCCCNC(=O)CSC(c1ccc(F)cc1)c1ccc(F)cc1 [Compound 2s, 2-((Bis(4-fluorophenyl)methyl)thio)-N-butylacetamide]",,,,6470,
"CCCNC(=O)CSC(c1ccc(Cl)cc1)c1ccc(Cl)cc1 [Compound 2m, 2-((Bis(4-chlorophenyl)methyl)thio)-N-propylacetamide]",,,10300,,
"O=C(CSC(c1ccccc1)c1ccccc1)NCCCc1ccccc1 [Compound 2u, 2-(Benzhydrylthio)-N-(3-phenylpropyl)acetamide]",,,,,Ki [3]: 2020 nM
"O=C(CSC(c1ccc(F)cc1)c1ccc(F)cc1)NCCCc1ccccc1 [Compound 2v, 2-((Bis(4-fluorophenyl)methyl)thio)-N-(3-phenylpropyl)acetamide]",> 100000,,3640,,
"CNC(=O)C[S+]([O-])C(c1ccccc1)c1ccccc1 (stereo not drawn) [Compound 3f, 2-(Benzhydrylsulfinyl)-N-methylacetamide]",> 100000,,> 100000,13400,
"c1ccc(CCCNCCSC(c2ccccc2)c2ccccc2)cc1 [Compound 4f, N-(2-(benzhydrylthio)ethyl)-3-phenylpropan-1-amine]",,853 ± 127,,,"Ki [3, 6]: 297 ± 28.2 nM; Ki [1, 5]: 3910 nM"
"c1ccc(C(SCCNCC2CC2)c2ccccc2)cc1 [Compound 4d, 2-(benzhydrylthio)-N-(cyclopropylmethyl)ethan-1-amine]",,10000,,,Ki [3]: 437 ± 30.1 nM
